Like-named read-outs stand apart in the source and are kept apart here.
Key:
[1] = system: S. aureus SCV strain NewbouldΔhemB; assay: MIC by microdilution against SCV strain; assay type: cell-based, Staphylococcus aureus; settings: for Activity of the compounds against the SCV strain (class) / MIC vs SCV: compound tested alone, strain NewbouldΔhemB
Description: Method. The minimal inhibitory concentrations (MICs), (i.e. lowest concentration of an antimicrobial that will inhibit the visible growth of a microorganism after incubation), of test compounds were determined against the normal or SCV strains of bacterial species from the Firmicutes phylum. Briefly, MICs were determined using the microdilution method in 96-well plates (Clinical and Laboratory Standards Institute (CLSI), 2011). Bacteria were inoculated at ˜10^5-10^6 CFU/mL and incubated at 35° C. for 20 h (normal strains) or 48 h (SCVs) in brain heart infusion (BHI) broth in order to allow SCVs to reach maximal growth as previously described (Mitchell et al., 2012). Then OD595 nm was read on a microplate reader. […] In this example the range of compound concentrations tested was 0.03 to 64 μg/ml using doubling increments. Strain Staphylococcus aureus NewbouldΔhemB (hemB) was also used in the experiments and is a laboratory-derived stable SCV created by the insertion of the macrolide resistance gene ermA in the hemB gene of this strain to create the SCV phenotype (defective electron transport chain and respiratory deficiency) through inactivation of hemin biosynthesis (Brouillette et al., 2004). […]

[2] = system: Staphylococcus aureus ATCC 29213; assay: MIC by microdilution, compound alone or in combination with an aminoglycoside; assay type: cell-based; settings: for potentiation / synergy with aminoglycoside (gentamicin) in words: S. aureus ATCC 29213; for MIC: Staphylococcus aureus, ATCC29213, 20 h; for Combination MIC vs ATCC29213 (MIC of gentamicin in combination with the compound): MIC of gentamicin alone 0.5 μg/mL; for MIC of aminoglycoside against S. aureus ATCC 29213 in combination with Compound 14: Compound 14 used at 4 μg/mL; for Potentiation fold with Compound 14: MIC aminoglycoside alone / MIC with Compound 14 at 4 μg/mL; for MIC vs ATCC29213: hydrochloride
Description: (§1) Method. The minimal inhibitory concentrations (MICs), (i.e. lowest concentration of an antimicrobial that will inhibit the visible growth of a microorganism after incubation), of test compounds were determined against the normal or SCV strains of bacterial species from the Firmicutes phylum. Briefly, MICs were determined using the microdilution method in 96-well plates (Clinical and Laboratory Standards Institute (CLSI), 2011). Bacteria were inoculated at ˜10^5-10^6 CFU/mL and incubated at 35° C. for 20 h (normal strains) or 48 h (SCVs) in brain heart infusion (BHI) broth in order to allow SCVs to reach maximal growth as previously described (Mitchell et al., 2012). Then OD595 nm was read on a microplate reader. […] In this example the range of compound concentrations tested was 0.03 to 64 μg/ml using doubling increments. Strain Staphylococcus aureus NewbouldΔhemB (hemB) was also used in the experiments and is a laboratory-derived stable SCV created by the insertion of the macrolide resistance gene ermA in the hemB gene of this strain to create the SCV phenotype (defective electron transport chain and respiratory deficiency) through inactivation of hemin biosynthesis (Brouillette et al., 2004).
The various antibacterial activities of the test compounds against Staphylococcus aureus ATCC 29213, alone or in combination with gentamicin, and alone against the SCV strain hemB are reported in Table 1.

MRSA USA100 = assay: MIC by microdilution, alone or in combination, MRSA USA100; assay type: cell-based, Staphylococcus aureus; settings: agent used alone
Description: as §1
(§2) In the present Example the range of compound concentrations tested, using doubling increments, was 0.03 to 64 μg/ml for Compound 14 and up to 1024 μg/ml for gentamicin (GEN), kanamycin (KAN) and cefalexin (CEF) when these compounds were used alone. Compound 14 (Cpd 14) was used at a fixed concentration of 4 μg/ml when added to other antibiotics. The combination of CEF and KAN was used in a 3:2 ratio and doubling increments were used to test the antibacterial activity against MRSA in the absence or presence of Compound 14.

MRSA COL = assay: MIC by microdilution, alone or in combination, MRSA COL; assay type: cell-based, Staphylococcus aureus; settings: agent used alone
Description: as §1, §2

[3] = system: methicillin-resistant Staphylococcus aureus (MRSA) strains; assay: MIC against MRSA strains; assay type: cell-based; settings: Staphylococcus aureus, MRSA, used alone; tested MRSA strains (kanamycin: two of the strains)
Description: as §1, §2

MRSA USA300 = assay: MIC by microdilution, alone or in combination, MRSA USA300; assay type: cell-based, Staphylococcus aureus; settings: agent used alone
Description: as §1, §2

S. aureus hemB (SaR1) = assay: MIC against tomatidine-resistant SCV mutant SaR1; assay type: cell-based, Staphylococcus aureus; settings: tomatidine-resistant mutant SaR1
Description: (§3) At each passage, using a microdilution method in 96-well microplates, S. aureus hemB was inoculated at ˜10^5-10^6 CFU/ml and incubated at 35° C. for 48 h. The range of tomatidine concentrations tested was 0.03 to 64 μg/ml using doubling increments. The concentration of gentamicin was fixed at 4 μg/mL when it was used in combination with tomatidine. At each passage, the minimal inhibitory concentrations (MICs) (i.e. lowest concentration of an antimicrobial that inhibits the visible growth of bacteria), of tomatidine was determined. The bacteria used as inoculum for the next passage were from the well preceeding the well showing the MIC (i.e. the well containing half the MIC). At each passage, the population of bacteria serving as the inoculum for the next passage was spread on BHI agar plates and three isolated colonies were collected and frozen until used for whole-genome sequencing.

S. aureus hemB (SaR2) = assay: MIC against tomatidine-resistant SCV mutant SaR2; assay type: cell-based, Staphylococcus aureus; settings: tomatidine-resistant mutant SaR2
Description: as §3

[4] = system: Listeria monocytogenes (strain ATCC 13932); assay: Time-kill experiments, Listeria monocytogenes; assay type: cell-based
Description: Time-kill experiments were performed in order to determine whether the effect of test compounds or the combination with an aminoglycoside on Listeria monocytogenes (strain ATCC 13932) is bacteriostatic (prevents growth) or bactericidal (kills cells).
At several time points during growth at 35° C. (225 RPM), bacteria were sampled, serially diluted and plated on Brain Hearth Infusion agar (BHIA) for colony-forming unit (CFU) determinations (i.e., viable bacterial counts). Plates were incubated for 24 h at 35° C. It represents the results of three independent experiments.

[5] = Staphylococcus aureus, read-out: MIC vs SCV
[6] = MIC gentamicin alone / MIC gentamicin with compound at 8 μg/mL
[7] = compound tested alone, read-out: MIC vs ATCC29213
[8] = read-out: MIC of aminoglycoside against S. aureus ATCC 29213, aminoglycoside alone
[9] = Staphylococcus aureus, read-out: MIC
[10] = S. aureus hemB (SCV strain NewbouldΔhemB)

Molecule: CCCCNC(C)[C@H]1CC[C@H]2[C@@H]3CC[C@H]4C[C@@H](O)CC[C@]4(C)[C@H]3CC[C@]12C.Cl (mixture of isomers) [Compound 48, 3β-Hydroxy-20-butylamino-5α-pregnane hydrochloride]
- MIC [1, 5]: 4 to 8 µg/mL
- Activity of the compounds against the SCV strain (class) [1]: Moderate (MIC = 0.5-4 μg/mL: moderate activity)
- potentiaton fold with gentamicin [2, 6]: 8 x
- potentiation / synergy with aminoglycoside (gentamicin) in words [2]: strong or moderate synergy
- MIC [2, 7]: 64 µg/mL
- potentiation activity with gentamicin in words ([2]; compound used at 8 μg/mL): High
- Combination MIC vs ATCC29213 (MIC of gentamicin in combination with the compound) ([2]; compound used at 8 μg/mL): 0.06

Molecule: CC(C)CCNC(C)[C@H]1CC[C@H]2[C@@H]3CC[C@H]4C[C@@H](O)CC[C@]4(C)[C@H]3CC[C@]12C.Cl (mixture of isomers) [Compound 50, 3β-Hydroxy-20-isopentylamino-5α-pregnane hydrochloride]
- MIC [1, 5]: > 8 µg/mL
- Activity of the compounds against the SCV strain (class) [1]: Low (MIC = ≥8 μg/mL: low activity)
- potentiaton fold with gentamicin [2, 6]: 4 x
- potentiation / synergy with aminoglycoside (gentamicin) in words [2]: strong or moderate synergy
- MIC [2, 7]: > 64 µg/mL
- potentiation activity with gentamicin in words ([2]; compound used at 8 μg/mL): Moderate
- Combination MIC vs ATCC29213 (MIC of gentamicin in combination with the compound) ([2]; compound used at 8 μg/mL): 0.12

Molecule: NCC[C@H](O)C(=O)N[C@@H]1C[C@H](N)[C@@H](O[C@H]2O[C@H](CN)[C@@H](O)[C@H](O)[C@H]2O)[C@H](O)[C@H]1O[C@H]1O[C@H](CO)[C@@H](O)[C@H](N)[C@H]1O [Amikacin, reference compound]
- MIC of aminoglycoside against S. aureus ATCC 29213 in combination with Compound 14 [2]: 0.25 µg/mL
- Potentiation fold with Compound 14 [2]: 16 fold
- MIC [2, 8]: 4 µg/mL

Molecule: CC1=C(C(=O)O)N2C(=O)[C@@H](NC(=O)[C@H](N)c3ccccc3)[C@H]2SC1 [Cefalexin, cefalexin]
- MIC (MRSA USA100; [9]): 256 µg/mL
- MIC (MRSA COL; [9]): 256 µg/mL
- MIC [3]: 256 µg/mL
- MIC (MRSA USA300; [9]): 256 µg/mL

Molecule: C[C@H]1CC[C@]2(NC1)O[C@H]1C[C@H]3[C@@H]4CC[C@H]5CC(NCCCCN)CC[C@]5(C)[C@H]4CC[C@]3(C)[C@H]1[C@@H]2C.Cl.Cl.Cl (stereo partly shown) [Compound 16, 3-(N-aminobutyl)-aminotomatidine hydrochloride]
- Activity of the compounds against the SCV strain (class) [1]: Moderate (MIC = 0.5-4 μg/mL: moderate activity)
- MIC vs SCV [1]: 0.5 µg/mL
- potentiaton fold with gentamicin ([2]; MIC gentamicin alone / MIC gentamicin with compound at 4 μg/mL): 4-8 x
- potentiation / synergy with aminoglycoside (gentamicin) in words [2]: retain the ability to potentiate
- activity vs ATCC29213 in words ([2]; compound tested alone): Active
- MIC vs ATCC29213 ([2]; compound tested alone): 16 µg/mL
- potentiation activity with gentamicin in words ([2]; compound used at 4 μg/mL): Moderate-high
- Combination MIC vs ATCC29213 (MIC of gentamicin in combination with the compound) ([2]; compound used at 4 μg/mL): 0.06-0.12

Molecule: C[C@H]1CC[C@]2(NC1)O[C@H]1C[C@H]3[C@@H]4CC[C@H]5CC(NCCCCCCN)CC[C@]5(C)[C@H]4CC[C@]3(C)[C@H]1[C@@H]2C.Cl.Cl.Cl (stereo partly shown) [Compound 18, 3-(N-aminohexyl)-aminotomatidine hydrochloride]
- Activity of the compounds against the SCV strain (class) [1]: Moderate (MIC = 0.5-4 μg/mL: moderate activity)
- MIC vs SCV [1]: 1 µg/mL
- potentiaton fold with gentamicin [2, 6]: 2-4 x
- potentiation activity with gentamicin in words ([2]; compound used at 8 μg/mL): Moderate
- Combination MIC vs ATCC29213 (MIC of gentamicin in combination with the compound) ([2]; compound used at 8 μg/mL): 0.12-0.25

Molecule: NC[C@H]1O[C@H](O[C@H]2[C@H](O)[C@@H](O[C@H]3O[C@H](CO)[C@@H](O)[C@H](N)[C@H]3O)[C@H](N)C[C@@H]2N)[C@H](O)[C@@H](O)[C@@H]1O [Kanamycin, kanamycin, reference compound]
- MIC (MRSA USA100; [9]): 256 µg/mL
- MIC (MRSA COL; [9]): 4 µg/mL
- MIC of aminoglycoside against S. aureus ATCC 29213 in combination with Compound 14 [2]: 0.25 µg/mL
- Potentiation fold with Compound 14 [2]: 16 fold
- MIC [2, 8]: 4 µg/mL
- MIC (MRSA USA300; [9]): > 1020 µg/mL

Molecule: [H]/N=C(/N)N[C@H]1[C@H](O)[C@@H](O)[C@H](O[C@@H]2O[C@@H](C)[C@](O)(C=O)[C@H]2O[C@@H]2O[C@@H](CO)[C@H](O)[C@@H](O)[C@@H]2NC)[C@@H](N/C(N)=N\[H])[C@@H]1O [Streptomycin, reference compound]
- MIC of aminoglycoside against S. aureus ATCC 29213 in combination with Compound 14 [2]: 1 µg/mL
- Potentiation fold with Compound 14 [2]: 4-8 fold
- MIC [2, 8]: 4 to 8 µg/mL

Molecule: NC[C@H]1O[C@H](O[C@H]2[C@H](O)[C@@H](O[C@H]3O[C@H](CO)[C@@H](O)[C@H](N)[C@H]3O)[C@H](N)C[C@@H]2N)[C@H](N)C[C@@H]1O [Tobramycin, reference compound]
- MIC of aminoglycoside against S. aureus ATCC 29213 in combination with Compound 14 [2]: 0.125 µg/mL
- Potentiation fold with Compound 14 [2]: 8 fold
- MIC [2, 8]: 1 µg/mL

Molecule: Tomatidine hydrochloride [Compound 3, reference compound]
- MIC (S. aureus hemB (SaR1)): >32 µg/mL
- MIC [1, 10]: 0.0625 µg/mL
- Activity of the compounds against the SCV strain (class) [1]: High (MIC = 0.06-0.25 μg/mL: high activity)
- MIC vs SCV [1]: 0.06 µg/mL
- MIC (S. aureus hemB (SaR2)): >32 µg/mL
- MIC vs ATCC29213 ([2]; compound tested alone): >64 µg/mL
- MIC vs ATCC29213 ([2]; compound tested alone, listed as tomatidine hydrochloride salt): > 64 µg/mL
- potentiation activity with gentamicin in words ([2]; compound used at 8 μg/mL): High
- Combination MIC vs ATCC29213 (MIC of gentamicin in combination with the compound) ([2]; compound used at 8 μg/mL): 0.06
- effect in time-kill in combination with gentamicin ([4]; 8 μg/ml with 2 μg/ml gentamicin): not seen
- effect on growth in time-kill (CFU) ([4]; used alone at 8 μg/ml): does not affect the growth

Molecule: gentamicin [reference compound]
- MIC (S. aureus hemB (SaR1)): 4 to 8 µg/mL
- MIC [1, 10]: 4 to 8 µg/mL
- MIC (MRSA USA100): 0.5 µg/mL
- MIC (S. aureus hemB (SaR2)): 16 µg/mL
- MIC (MRSA COL): 0.25 µg/mL
- MIC of aminoglycoside against S. aureus ATCC 29213, aminoglycoside alone ([2]; aminoglycoside alone): 0.5 µg/mL
- MIC (MRSA USA300): 0.5 µg/mL
